Values of other authors as cited in PMC8583936, “Machine Learning Assisted Approach for Finding Novel High Activity Agonists of Human Ectopic Olfactory Receptors” (International Journal of Molecular Sciences, 2021).
Like-named read-outs stand apart in the source and are kept apart here.

Key:
[1] = biological target: T1, OR1A1 (Homo sapiens, UniProt Q9P1Q5); conditions: cited from earlier work
T1 sequence (Q9P1Q5 1-309): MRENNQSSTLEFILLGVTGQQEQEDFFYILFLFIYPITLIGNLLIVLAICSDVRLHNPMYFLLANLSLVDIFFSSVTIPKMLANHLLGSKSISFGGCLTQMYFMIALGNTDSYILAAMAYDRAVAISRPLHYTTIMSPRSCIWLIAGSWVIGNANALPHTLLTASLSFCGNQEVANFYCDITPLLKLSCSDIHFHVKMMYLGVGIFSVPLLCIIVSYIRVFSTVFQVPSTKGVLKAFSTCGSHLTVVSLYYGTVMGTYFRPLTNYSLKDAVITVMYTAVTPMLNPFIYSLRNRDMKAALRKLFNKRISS

[2] = biological target: T2, OR2W1 (Homo sapiens, UniProt Q9Y3N9); conditions: cited from earlier work
T2 sequence (Q9Y3N9 1-320): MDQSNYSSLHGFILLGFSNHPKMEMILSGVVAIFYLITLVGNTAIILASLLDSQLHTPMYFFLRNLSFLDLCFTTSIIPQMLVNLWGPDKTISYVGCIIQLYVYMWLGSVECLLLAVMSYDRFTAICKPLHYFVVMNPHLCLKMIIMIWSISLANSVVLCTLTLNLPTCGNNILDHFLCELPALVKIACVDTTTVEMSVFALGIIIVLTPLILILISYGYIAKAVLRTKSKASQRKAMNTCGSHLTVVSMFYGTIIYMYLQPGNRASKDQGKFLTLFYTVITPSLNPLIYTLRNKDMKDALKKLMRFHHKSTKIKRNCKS

[3] = Table S1, ref Supplement references [1]-[9] as printed after each odorant name
[4] = Table S2, ref Supplement references [2]-[12] as printed after each odorant name

Row | SMILES | Class (agonist / non-agonist / conflicting info.) for OR1A1 [1] | Class (agonist / non-agonist / antagonist / conflicting info.) for OR2W1 [2] | Class (agonist / non-agonist / conflicting info.) for OR1A1 [1, 3] | Class (agonist / non-agonist / antagonist / conflicting info.) for OR2W1 [2, 4] | Class (agonist / non-agonist / conflicting info.) for OR1A1 ([1]; Table S1, ref Supplement references [1]-[9] as printed after each odorant name, listed as (R)-limonene)
1 | CCCCCCCOC(=O)C(C)C [Heptyl isobutyrate] | Non-agonist | Non-agonist |  |  | 
2 | CCCCCC=O [Hexanal] |  |  | Non-agonist | Conflicting info. | 
3 | CCCCCC(=O)O [Hexanoic acid] | Non-agonist | Non-agonist |  |  | 
4 | CCCCCCO [Hexanol] |  |  | Non-agonist | Conflicting info. | 
5 | CCCCCCOC(C)=O [Hexyl acetate] |  |  | Non-agonist | Agonist | 
6 | CCC1OC(C)=C(O)C1=O (stereo not drawn) [Homofuraneol] |  |  | Non-agonist | Non-agonist | 
7 | CC(CC=O)CCCC(C)(C)O (stereo not drawn) [Hydroxy-citronellal] |  |  | Conflicting info. | Non-agonist | 
8 | CC(=O)OCCC(C)C [Isoamyl acetate] |  |  | Non-agonist | Agonist | 
9 | CC(C)CO [Isobutyl alcohol] |  |  | Non-agonist | Non-agonist | 
10 | CC(C)CN [Isobutyl amine] |  |  | Conflicting info. | Antagonist | 
11 | CC(C)C=O [Isobutylraldehyde] |  |  | Non-agonist | Non-agonist | 
12 | CC(C)C(=O)O [Isobutyric acid] |  |  | Non-agonist | Non-agonist | 
13 | CC(C)CC=O [Isovaleraldehyde] |  |  | Non-agonist | Non-agonist | 
14 | CC(C)CC(=O)O [Isovaleric acid] |  |  | Non-agonist | Antagonist | 
15 | C=CC(C)(O)CCC=C(C)C (stereo not drawn) [Linalool] |  |  | Conflicting info. | Non-agonist | 
16 | CC(C)(O)CCCC1=CCC(C=O)CC1 (stereo not drawn) [Lyral] |  |  | Conflicting info. | Non-agonist | 
17 | Cc1occc(=O)c1O [Maltol] |  |  | Non-agonist | Non-agonist | 
18 | CC(C)[C@@H]1CC[C@@H](C)CC1=O [Menthone] |  |  | Conflicting info. | Non-agonist | 
19 | CSCCC=O [Methional] |  |  | Non-agonist | Non-agonist | 
20 | CSCCCO [Methionol] |  |  | Non-agonist | Non-agonist | 
21 | CSSc1ccoc1C [Methyl 2-methyl-3-furyl disulfide] |  |  | Non-agonist | Non-agonist | 
22 | CCC(C)C(=O)OC (stereo not drawn) [Methyl 2-methylbutyrate] |  |  | Non-agonist | Non-agonist | 
23 | COC(=O)c1ccccc1N [Methyl anthranilate] | Non-agonist | Agonist |  |  | 
24 | COC(=O)c1ccccc1 [Methyl benzoate] | Non-agonist | Non-agonist |  |  | 
25 | CCCC(=O)OC [Methyl butyrate] | Non-agonist | Non-agonist |  |  | 
26 | COC(=O)C=Cc1ccccc1 [Methyl cinnamate] |  |  | Non-agonist | Agonist | 
27 | CSSCc1ccco1 [Methyl furfuryl disulfide] |  |  | Conflicting info. | Non-agonist | 
28 | COC(=O)C(C)C [Methyl isobutyrate] |  |  | Non-agonist | Non-agonist | 

Row | SMILES | Class (agonist / non-agonist / conflicting info.) for OR1A1 [1] | Class (agonist / non-agonist / antagonist / conflicting info.) for OR2W1 [2] | Class (agonist / non-agonist / conflicting info.) for OR1A1 [1, 3] | Class (agonist / non-agonist / antagonist / conflicting info.) for OR2W1 [2, 4] | Class (agonist / non-agonist / conflicting info.) for OR1A1 ([1]; Table S1, ref Supplement references [1]-[9] as printed after each odorant name, listed as (R)-limonene)
29 | CCCSSSC [Methyl propyl trisulfide] |  |  | Non-agonist | Non-agonist | 
30 | COC(=O)c1ccccc1O [Methyl salicylate] |  |  | Conflicting info. | Agonist | 
31 | C=CC(=C)CCC=C(C)C [Myrcene] |  |  | Non-agonist | Non-agonist | 
32 | CCCCCOC(C)=O [N-amyl acetate] |  |  | Non-agonist | Agonist | 
33 | O=C(O)CCCCCCCC(=O)O [Nonanedioic acid] |  |  | Non-agonist | Non-agonist | 
34 | CCCCCCCCCS [Nonanethiol] |  |  | Agonist | Agonist | 
35 | CCCCCCCCC(=O)O [Nonanoic acid] | Conflicting info. | Agonist |  |  | 
36 | CCCCCCCCCO [Nonanol] |  |  | Non-agonist | Agonist | 
37 | CCCCCCCC=O [Octanal] |  |  | Conflicting info. | Agonist | 
38 | CCCCCCCCS [Octanethiol] | Conflicting info. | Agonist |  |  | 
39 | CCCCCCCC(=O)O [Octanoic acid] | Non-agonist | Conflicting info. |  |  | 
40 | CCCCCCCCO [Octanol] |  |  | Conflicting info. | Agonist | 
41 | CCCCCCCCOC(=O)CCCCCCC [Octyl octanoate] |  |  | Conflicting info. | Antagonist | 
42 | C=C(C)c1ccc(C)cc1 [P,α-Dimethylstyrene] |  |  | Non-agonist | Agonist | 
43 | O=C(O)C=Cc1ccc(O)cc1 [P-Coumaric acid] |  |  | Non-agonist | Non-agonist | 
44 | CCCCC=O [Pentanal] |  |  | Non-agonist | Non-agonist | 
45 | CCCCCO [Pentanol] |  |  | Conflicting info. | Conflicting info. | 
46 | O=CCc1ccccc1 [Phenyl acetaldehyde] |  |  | Non-agonist | Non-agonist | 
47 | CC(=O)Oc1ccccc1 [Phenyl acetate] |  |  | Non-agonist | Non-agonist | 
48 | CC(=O)OCC=C(C)C [Prenyl acetate] |  |  | Non-agonist | Agonist | 
49 | CCC=O [Propanal] |  |  | Conflicting info. | Conflicting info. | 
50 | CCC(=O)O [Propionic acid] | Conflicting info. | Non-agonist |  |  | 
51 | CCCOC(=O)CCC [Propyl butyrate] | Non-agonist | Non-agonist |  |  | 
52 | CCCSSCCC [Propyl disulfide] |  |  | Non-agonist | Non-agonist | 
53 | c1ccc2ncccc2c1 [Quinoline] |  |  | Agonist | Non-agonist | 
54 | C=C(C)[C@H]1CC=C(C)CC1 [R-limonene] |  |  | Agonist | Agonist | agonists
55 | CC(C)=CC1CC(C)CCO1 (stereo not drawn) [Rose oxide] |  |  | Non-agonist | Non-agonist | 
